Reference: patent publication EP0378755B1, “Heterocyclically substituted alpha-aryl acryl acid methyl esters and their use” (BASF Aktiengesellschaft, priority 1988, dated 1990)

Columns and labels:
Type in all cases: in vivo
[1] = test system: Plasmopara viticola; assay: Efficacy against Plasmopara viticola on potted vine leaves, protective spray; details: 0,0125 gew.%ige Spritzbrühe; vines "Müller Thurgau"; infected 8 days after spraying
From the text: Wirksamkeit gegen Plasmopara viticola
Blätter von Topfreben der Sorte "Müller Thurgau" wurden mit wäßriger Spritzbrühe, die 80 % Wirkstoff und 20 % Emulgiermittel in der Trockensubstanz enthielt, besprüht. Um die Wirkungsdauer der Wirkstoffe beurteilen zu können, wurden die Pflanzen nach dem Antrocknen des Spritzbelages 8 Tage im Gewächshaus aufgestellt. Erst dann wurden die Blätter mit einer Zoosporenaufschwemmung von Plasmopara viticola (Rebenperonospora) infiziert. Danach wurden die Reben zunächst für 48 Stunden in einer wasserdampfgesättigten Kammer bei 24°C und anschließend für 5 Tage in einem Gewächshaus mit Temperaturen zwischen 20 und 30°C aufgestellt. Nach dieser Zeit wurden die Pflanzen zur Beschleunigung des Sporangienträgerausbruches abermals für 16 Stunden in der feuchten Kammer aufgestellt. Dann erfolgte die Beurteilung des Ausmaßes des Pilzausbruches auf den Blattunterseiten.

[2] = test system: Pyrenophora teres; assay: Efficacy against Pyrenophora teres on barley seedlings, protective spray; details: 0,0125 gew.%ige Spritzbrühe; barley "Igri"; inoculated 24 h after spraying
Method: Wirksamkeit gegen Pyrenophora teres
Gerstenkeimlinge der Sorte "Igri" wurden im Zweiblattstadium mit wäßrigen Suspensionen, die 80 % Wirkstoff und 20 % Emulgator in der Trockensubstanz enthielten, tropfnaß gespritzt. Nach 24 Stunden wurden die Pflanzen mit einer Sporensuspension des Pilzes Pyrenophora teres inokuliert und für 48 Stunden in eine Klimakammer mit hoher Luftfeuchtigkeit bei 18°C gestellt. Anschließend wurden die Pflanzen im Gewächshaus bei 20 bis 22°C und 70 % relativer Luftfeuchtigkeit für weitere 5 Tage kultiviert. Dann wurde das Ausmaß des Befalls ermittelt.

[3] = test system: Ornithodorus moubata; assay: Ornithodorus moubata (tick) contact test by dipping; details: after 48 h, ca. 25°C
From the text: Ornithodorus moubata (Zecke)
(§1) Versuchsart: Kontaktwirkung
Verwendet wurden junge Zecken, die eine Blutmahlzeit hinter sich hatten (Durchmesser 1,5 bis 2 mm). Diese Tiere nahm man mit Hilfe eines Saugrohres einzeln auf, wobei eine starke Lichtquelle die aktiven Tiere aus den Häutungsresten trieb. Je 5 Zecken wurden in einem Papierbeutel für 5 Sekunden in die wäßrige Wirkstoffaufbereitung getaucht (Wirkstoffgehalt in ppm). Die Beutel hing man danach frei auf und ermittelte nach 48 Stunden die Wirkung. Dabei wurden die Beutel an eine starke Lichtquele (60 W-Birne) gehalten; die lebenden Tiere versuchten auszuweichen und waren leicht zu erkennen. Die Versuchstemperatur betrug ca. 25°C. Man bestimmte die Mortalität in %.

[4] = test system: Tetranychus telarius; assay: Tetranychus telarius contact test, spray test on bush beans; details: 120 h, after 5 days
Method: Tetranychus telarius, Rote Spinne, Kontaktwirkung, Spritzversuch
Buschbohnen in Töpfen, die das zweite Blattpaar zeigen, werden mit der wäßrigen Wirkstoffaufbereitung tropfnaß gespritzt. Die Pflanzen werden von allen Seiten mit insgesamt 50 ml Spritzbrühe besprüht. Die Pflanzen weisen einen starken Milbenbefall und reichliche Eiablage auf.
Die Wirkung wird nach 5 Tagen mittels Binokular ermittelt. Dabei wird darauf geachtet, ob alle Entwicklungsstadien der Tiere gleichmäßig erfaßt sind. Die Pflanzen stehen während der 5 Tage unter normalen Gewächshausbedingungen.

[5] = test system: Prodenia litura; assay: Prodenia litura feeding test on dipped maize pieces; details: after 24 h
Method: Prodenia litura, ägypt. Baumwollwurm
Die Versuche wurden in 250 ml Plastikbechern durchgeführt. Dabei setzte man 2 Raupen in die Gefäße und bot Stücke von Maispflanzen, die man für 5 Sekunden in die wäßrige Wirkstoffaufbereitung getaucht hatte, als Futter an. Wirkstoffgehalt in ppm. Nach 24 Stunden beurteilte man die Mortalitätsrate in %.

[6] = test system: Musca domestica; assay: Musca domestica continuous contact test in glass dish; details: after 4 h
Method: Musca domestica (Stubenfliegen)
Versuchsart: Dauerkontakt
Beide Teile einer Glasschale von 10 cm Durchmesser wurden mit insgesamt 1 ml der acetonischen Lösung der Wirkstoffe benetzt. Wirkstoffgehalt der Lösung in ppm. Nach Verdunsten des Lösungsmittels brachte man je 10 Fliegen in die Schalen, schloß sie und zählte nach 4 Stunden die Tiere, die sich in Rückenlage befanden und bestimmte die Mortalitätsrate in %.

[7] = test system: Plutella maculipennis; assay: Plutella maculipennis contact test on dipped cabbage leaves; details: after 48 h, 4th instar larvae
Method: Plutella maculipennis (Kohlschabe)
as §1
Junge Kohlblätter wurden 3 sec. in die wäßrige Aufbereitung der Prüfsubstanz getaucht (Wirkstoffgehalt in ppm) und auf einen mit 0,5 ml Wasser angefeuchteten Rundfilter (Φ 9 cm) in eine Glasschale gelegt (Φ 10 cm). Darauf wurde das Blatt mit 10 Raupen im 4. Larvenstadium besetzt und die Glasschale geschlossen. Nach 48 Stunden beurteilte man die Mortalität in %.

[8] = test system: Septoria nodorum; assay: Efficacy against Septoria nodorum on wheat plants, protective spray; details: 0,05 gew.%ige Spritzbrühe; wheat "Frühgold"; inoculated 20 h after spraying, assessed after one week
Method: Wirksamkeit gegen Septoria nodorum
Weizenpflanzen der Sorte "Frühgold" wurden im Ein-Blatt-Stadium mit wäßriger Wirkstoffaufbereitung, die 80 % Wirkstoff und 20 % Emulgiermittel in der Trockensubstanz enthielt, bis zur Tropfnässe besprüht. 20 Stunden nach dem Antrocknen des Spritzbelages wurden die Pflanzen mit einer wäßrigen Sporensuspension von Septoria nodorum bis zur Tröpfchenbildung inokuliert und für eine Woche in eine Klimakammer bei Temperaturen zwischen 17 und 19°C und einer relativen Luftfeuchtigkeit von ungefähr 90 bis 95 % gestellt. Dann wurde das Ausmaß der Symptomentwicklung ermittelt.

Structure (SMILES) | fungizide Wirkung [1] [%] | fungizide Wirkung [2] [%] | fungizide Wirkung [8] [%] | further results
CO/C=C(/C(=O)OC)c1ccccc1/C=C/c1cc(-c2ccc(C)cc2)no1 [compound 45] | 95 | 95 |  | % Mort. ([3]; 1000 ppm): 60%; mortality at 40 ppm ([4]; 40 ppm): 80%
COC=C(C(=O)OC)c1ccccc1C=Cc1cc(C2CC2)no1 [Verbindung Nr. 42, Alpha-2-[2′-(3˝-Cyclopropyl-isoxazol-5˝-yl)-ethen-1′-yl]-phenyl-β-methoxy-acrylsäuremethylester] | 95 |  |  | 
COC=C(C(=O)OC)c1ccccc1C=Cc1ccc(Cl)cc1 [A, 2-(β-Methoxy-α-methoxycarbonylvinyl)-4'-chlor-stilben] |  |  |  | mortality at 1000 ppm [5]: 0%; mortality at 2 ppm [6]: 0%; mortality at 1000 ppm [7]: 0%; % Mort. ([3]; 1000 ppm): 0%
COC=C(C(=O)OC)c1ccccc1Oc1cncc(Cl)n1 [C, α-2-(6-Chlorpyrazin-2-oxy)-phenyl-β-methoxy-acrylsäuremethylester, reference compound] | 60 | 55 |  | 
CO/C=C(/C(=O)OC)c1ccccc1/C=C/c1cnn(-c2ccc(Cl)cc2)c1 [compound 31] | 95 | 95 | 95 | 
CO/C=C(/C(=O)OC)c1ccccc1/C=C/c1cc(-c2ccccc2)no1 [compound 101] | 95 |  |  | % Mort. ([3]; 1000 ppm): 60%; mortality at 100 ppm [4]: 100%
COC=C(C(=O)OC)c1ccccc1Oc1nc2ccccc2o1 [B, α-[2-(Benzoxazol-2'-yl-oxy)-phenyl]-β-methoxy-acrylsäuremethylester] |  |  |  | mortality at 1000 ppm [5]: 80%; mortality at 4 ppm ([6]; 4 ppm): 80%; mortality at 200 ppm ([7]; 200 ppm): 0%; mortality at 1000 ppm [7]: 80%; % Mort. ([3]; 1000 ppm): 0%; mortality at 1000 ppm ([4]; 1000 ppm): 0%
CO/C=C(/C(=O)OC)c1ccccc1/C=C/c1nnc(C(C)C)o1 [compound 69] |  | 95 | 95 | 
CO/C=C(/C(=O)OC)c1ccccc1/C=C/c1cnn(-c2ccc(C)cc2)c1 [compound 30] | 95 | 95 | 95 | 
CO/C=C(/C(=O)OC)c1ccccc1/C=C/c1cnn(-c2ccc(Br)cc2)c1 [compound 99] | 95 | 95 | 95 | 
CO/C=C(/C(=O)OC)c1ccccc1/C=C/c1cc(-c2ccc(C#N)cc2)no1 [compound 46] | 95 | 95 |  | mortality at 400 ppm ([4]; 400 ppm): 100%
CO/C=C(/C(=O)OC)c1ccccc1/C=C/c1ccn(-c2ccc(Cl)cc2)c1 [Verbindung Nr. 4, Alpha-2-[2'-(N-para-Chlorphenyl-pyrrol-3''-yl)-ethen-1'-yl]-phenyl-β-methoxy-acrylsäuremethylester] |  |  | 95 | mortality at 40 ppm ([5]; 40 ppm): 100%; mortality at 2 ppm [6]: 100%; mortality at 100 ppm ([7]; 100 ppm): 100%; % Mort. ([3]; 400 ppm): 80%
CO/C=C(/C(=O)OC)c1ccccc1/C=C/c1nc(-c2ccc(Cl)cc2)no1 [compound 84] |  | 95 | 95 | 
CO/C=C(/C(=O)OC)c1ccccc1/C=C/c1cc(C)no1 [compound 100] | 95 | 95 |  | 
CO/C=C(/C(=O)OC)c1ccccc1/C=C/c1cc(-c2c(F)cccc2Cl)no1 [compound 102] | 95 | 95 | 95 | 
CO/C=C(/C(=O)OC)c1ccccc1/C=C/c1cnn(-c2ccc(F)cc2)c1 [compound 98] | 95 | 95 | 95 | 
CO/C=C(/C(=O)OC)c1ccccc1/C=C/c1cc(C(C)C)no1 [compound 41] |  |  | 95 | % Mort. ([3]; 1000 ppm): 80%; mortality at 100 ppm [4]: 100%
